US20250115598A1 (Anaxis Pharma Pty Ltd, priority 2021, published 2025)
Where two headings read alike, the source gives them in different places.

What was measured:
[1] = tested on: Immortalised Mouse Dermal Fibroblasts (MDFs); test: Cellular assay: inhibition of TSI induced necroptosis, CellTitre-Glo viability; settings: Mus musculus, Fibroblast, MDF, 3 hours TSI cocktail, read-out: Inhibition of TSI-induced necroptosis (IC50 cell-based assay) in MDF
Protocol: Cellular Assay: Screening Compounds for Inhibition of TSI Induced Necroptosis in, 384 Well Plate Format.
• Cell Line ID: Immortalised Mouse Dermal Fibroblasts (MDFs). • Cell Concentration (cells/well): Final cell density is 2200 cells per well. • Cell growth medium: DMEM medium+7.4% Fetal Bovine Serum (FBS). Cells are cultured in Corning 150 cm^2 tissue culture flasks with vented caps at 37° C./10% CO2. • Incubation: Plates were incubated for 30 minutes following addition of compounds and then 3 hours incubation with death stimuli (TSI cocktail) at 37° C./10% CO2 in a humidified incubator. • Compound concentration: 36 μM starting concentration, 1:3 dilution, 10 point • DMSO final concentration (% v/v): 0.3%. Compounds in TSI Cocktail (T: TNF; S: Smac Mimetic; I: IDN-6556) and their Final Concentrations: • rhTNF (100 ng/ml) • Compound a (500 nM)—Smac Mimetic, Tetralogic and SYNthesis Med Chem • IDN-6556 (10 μM)—Selleckchem (S7775)
The cellular assay was carried out according to the following steps: • 1. Each well was prepared by sequential addition of: • a. 40 μL of cell suspension (5.5×10^4 cells/mL) was added to each well to provide a final cell concentration of 2,200 cells per well. • b. After 24 hours, DMSO (control; columns 1-2 and 23-24) or compound in DMSO—addition was performed using acoustic transfer of nL volumes of stock compound to give final test concentrations of 36, 12, 4, 1.3, 0.44, 0.148, 0.049, 0.016, 0.005 and 0.002 μM. All wells were backfilled with DMSO to a final total volume in the well of 100 nL. • c. Following compound/DMSO addition in step (b), Plates were incubated for 30 minutes at 37° C./10% CO2 in a humidified incubator and then 10 μL of 5×TSI cocktail (except to positive controls; columns 2 and 24) was added to each well. • 2. After 3 hours, plate was removed from the 37° C. incubator and equilibrated to room temperature for 15 minutes. • 3. 15 μL of room temperatured CellTitre-Glo2™ (Promega™) was added to each well. • 4. Shook plates for 2 minutes (˜600 rpm) and incubated at room temperature for 15 minutes to allow signal to stabilise. • 5. Read luminescence readout on a plate reader.
Percent viability was calculated for each compound according to equation (2):
[formula] • Wherein RawData is the readout of any cell containing a compound of the invention.
TA is the total activity provided by the luminescence readout from DMSO only wells (columns 2 and 24)=100% viability.
NSA is the non-specific activity provided by DMSO+TSI wells (columns 1 and 23)=0% viability • Curve fitting: 10-point titration curves are fitted with the 4-parameter logistic nonlinear regression model and the IC50 reported is the inflection point of the curve • Analysis: Data was loaded into Dotmatics™ and visualised using the Tibco@ • Spotfire™ software. 10 point titration curves were fitted with the 4 parameter logistic nonlinear regression model and the IC50 reported reflect the inflection point of the curve for curve fitting.
Assay involving the TSI cocktail (T: TNF; S: Smac mimetic; I: IDN-6556): TSI treatment ensures that cells specifically undergo necroptotic cell death. TNF activates the TNF receptor, Smac mimetic directs the signal away from proinflammatory signaling and toward the RIPK1/RIPK3-mediated cell death pathways, and IDN-6556 (Caspase inhibitor) ensures that the apoptotic response is blocked leaving only the programmed necrosis response. The compounds' activity (solution in DMSO) tested in this TSI-induced assay was evaluated by determining the number of viable cells in culture by measuring the amount of ATP present as measured by CelltiterGlo.

human MLKL (full length) = human MLKL (full length) (Homo sapiens (Human), UniProt Q8NB16); test: KINOMEscan binding assay, human MLKL (full length); settings: hMLKL, Table 25; read-out: MLKL (KD)
human MLKL (full length), sequence (Q8NB16 whole entry, the tested form may be a part): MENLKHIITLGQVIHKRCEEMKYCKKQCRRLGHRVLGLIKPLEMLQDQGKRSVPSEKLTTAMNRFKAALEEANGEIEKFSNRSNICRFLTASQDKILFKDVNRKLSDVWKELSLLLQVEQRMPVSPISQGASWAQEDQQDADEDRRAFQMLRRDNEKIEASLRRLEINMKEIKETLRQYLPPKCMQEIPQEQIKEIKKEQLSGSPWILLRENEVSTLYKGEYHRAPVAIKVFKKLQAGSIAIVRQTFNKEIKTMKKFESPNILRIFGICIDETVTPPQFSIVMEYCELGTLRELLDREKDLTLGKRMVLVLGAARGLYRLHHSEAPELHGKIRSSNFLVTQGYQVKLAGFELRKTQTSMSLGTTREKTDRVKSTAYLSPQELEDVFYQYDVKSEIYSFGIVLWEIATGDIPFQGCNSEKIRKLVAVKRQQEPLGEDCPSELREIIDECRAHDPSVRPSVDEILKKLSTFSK
Method in brief: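 Active-site competition binding: DNA-tagged kinase (T7 phage fusion from BL21-derived E. coli lysate, or HEK-293-expressed) captured on immobilized-ligand beads, with bound kinase in the eluate quantified by qPCR. Compounds ran as 11-point 3-fold dilutions, 1% DMSO, top 30,000 nM for most. Kd came from a Hill fit (slope −1).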

What does the source list for `C[C@H](Oc1cc(-c2nn(C)c3c(-c4cnn(C5CCN(C(=O)c6ccc7c(N8CCC(=O)NC8=O)coc7c6)CC5)c4)cnc(N)c23)ccc1NS(=O)(=O)C(F)F)c1ccc(F)cc1` [Compound 1117, N-{4-[4-amino-7-(1-{1-[3-(2,4-dioxo-1,3-diazinan-1-yl)-1-benzofuran-6-carbonyl]piperidin-4-yl}-1H-pyrazol-4-yl)-1-methyl-1H-pyrazolo[4,3-c]pyridin-3-yl]-2-[(1S)-1-(4-fluorophenyl)ethoxy]phenyl}-1,1-difluoromethanesulfonamide]?
IC50 ([1]; Table 27): 1 to 10 µM; Kd (human MLKL (full length)): < 0.01 µM

`Cc1ncsc1-c1ccc(CNC(=O)[C@@H]2C[C@@H](O)CN2C(=O)[C@@H](NC(=O)C2(F)CC2)C(C)(C)C)c(OCCOCCOCCOCCn2cc(-c3cnc(N)c4c(-c5ccc(NS(=O)(=O)C(F)F)c(O[C@@H](C)c6ccc(F)cc6)c5)nn(C)c34)cn2)c1` [Compound 1061, (2S,4R)-N-({2-[2-(2-{2-[2-(4-{4-amino-3-[4-(difluoromethanesulfonamido)-3-[(1S)-1-(4-fluorophenyl)ethoxy]phenyl]-1-methyl-1H-pyrazolo[4,3-c]pyridin-7-yl}-1H-pyrazol-1-yl)ethoxy]ethoxy}ethoxy)ethoxy]-4-(4-methyl-1,3-thiazol-5-yl)phenyl}methyl)-1-[(2S)-2-[(1-fluorocyclopropyl)formamido]-3,3-dimethylbutanoyl]-4-hydroxypyrrolidine-2-carboxamide] was tested. Which IC50 ([1]; Table 27) did it give?
The IC50 was 1 to 10 µM.

What about the Kd (human MLKL (full length)) of the same molecule?
The Kd was under 0.01 µM.

Which IC50 ([1]; Table 27) does the source give for `Cc1ncsc1-c1ccc(CNC(=O)[C@@H]2C[C@@H](O)CN2C(=O)[C@@H](NC(=O)CCCCOC(=O)c2ccc(-c3cnc(N)c4c(-c5ccc(NS(=O)(=O)C(F)F)c(O[C@@H](C)c6ccc(F)cc6)c5)nn(C)c34)cc2)C(C)(C)C)cc1` [Compound 1064, 4-{[(2S)-1-[(2S,4R)-4-hydroxy-2-({[4-(4-methyl-1,3-thiazol-5-yl)phenyl]methyl}carbamoyl)pyrrolidin-1-yl]-3,3-dimethyl-1-oxobutan-2-yl]carbamoyl}butyl 4-{4-amino-3-[4-(difluoromethanesulfonamido)-3-[(1 S)-1-(4-fluorophenyl)ethoxy]phenyl]-1-methyl-1H-pyrazolo[4,3-c]pyridin-7-yl}benzoate] here?
Its IC50 is 1 to 10 µM.

And the Kd (human MLKL (full length))?
Its Kd is 0.01 to 1 µM.

Which IC50 ([1]; Table 24) does the source give for `C[C@H](Oc1cc(-c2nn(C)c3c(-c4cnn(C5CCNC(C(F)(F)F)C5)c4)cnc(N)c23)ccc1NS(=O)(=O)C(F)F)c1ccc(F)cc1` (stereo partly drawn) [Compound 149, N-(4-(4-amino-1-methyl-7-(1-(2-(trifluorometh-yl)piperidin-4-yl)-1H-pyrazol-4-yl)-1H-pyrazolo[4,3-c]pyridin-3-yl)-2-((S)-1-(4-fluoro-phenyl)ethoxy)phenyl)-1,1-difluoro-methanesulfonamide] here?
The IC50 was under 1 µM.

What does the source list for `C[C@H](Oc1cc(-c2nn(C)c3c(-c4cnn(C5CCN(C(=O)c6cccc(C(=O)NC7CCC(=O)NC7=O)c6)CC5)c4)cnc(N)c23)ccc1NS(=O)(=O)C(F)F)c1ccc(F)cc1` (stereo partly drawn) [Compound 1084, 3-[4-(4-{4-amino-3-[4-(difluoromethanesulfonamido)-3-[(1S)-1-(4-fluorophenyl)ethoxy]phenyl]-1-methyl-1H-pyrazolo [4,3-c]pyridin-7-yl}-1H-pyrazol-1-yl)piperidine-1-carbonyl]-N-(2,6-dioxopiperidin-3-yl)benzamide]?
IC50 ([1]; Table 27): 1 to 10 µM; Kd (human MLKL (full length)): < 0.01 µM

For `[2H]C([2H])([2H])N1CCC(n2cc(-c3cnc(N)c4c(-c5ccc(NS(=O)(=O)C(F)F)c(O[C@@H](C)c6ccc(F)cc6)c5)nn(C)c34)cn2)CC1(C)C` (stereo partly drawn) [Compound 152, N-(4-(4-amino-7-(1-(2,2-dimethyl-1-(methyl-d3)piperidin-4-yl)-1H-pyrazol-4-yl)-1-methyl-1H-pyrazolo[4,3-c]pyridin-3-yl)-2-((S)-1-(4-fluorophenyl)ethoxy)phenyl)-1,1-difluoromethanesulfonamide], which IC50 ([1]; Table 24) is on record?
Its IC50 is under 1 µM.

Which IC50 ([1]; Table 27) does the source give for `Cc1ncsc1-c1ccc(CNC(=O)[C@@H]2C[C@@H](O)CN2C(=O)[C@@H](NC(=O)CCCCCCCn2cc(-c3cnc(N)c4c(-c5ccc(NS(=O)(=O)C(F)F)c(O[C@@H](C)c6ccc(F)cc6)c5)nn(C)c34)cn2)C(C)(C)C)cc1` [Compound 1067, (2S,4R)-1-[(2S)-2-[8-(4-{4-amino-3-[4-(difluoromethanesulfonamido)-3-[(1S)-1-(4-fluorophenyl)ethoxy]phenyl]-1-methyl-1H-pyrazolo[4,3-c]pyridin-7-yl}-1H-pyrazol-1-yl)octanamido]-3,3-dimethylbutanoyl]-4-hydroxy-N-{[4-(4-methyl-1,3-thiazol-5-yl)phenyl]methyl}pyrrolidine-2-carboxamide] here?
Its IC50 is under 1 µM.

What about the Kd (human MLKL (full length)) of the same molecule?
The Kd was under 0.01 µM.

How did the IC50 ([1]; Table 27) turn out when `Cc1ncsc1-c1ccc(CNC(=O)[C@@H]2C[C@@H](O)CN2C(=O)[C@@H](NC(=O)CCCCC#Cc2cnc(N)c3c(-c4ccc(NS(=O)(=O)C(F)F)c(O[C@@H](C)c5ccc(F)cc5)c4)nn(C)c23)C(C)(C)C)cc1` [Compound 1026, (2S,4R)-1-[(2S)-2-(7-{4-amino-3-[4-(difluoromethanesulfonamido)-3-[(1S)-1-(4-fluorophenyl)ethoxy]phenyl]-1-methyl-1H-pyrazolo[4,3-c]pyridin-7-yl}hept-6-ynamido)-3,3-dimethylbutanoyl]-4-hydroxy-N-{[4-(4-methyl-1,3-thiazol-5-yl)phenyl]methyl}pyrrolidine-2-carboxamide] was run?
The IC50 was 1 to 10 µM.

What about the Kd (human MLKL (full length)) of the same molecule?
Its Kd is 0.01 to 1 µM.

With `C[C@H](Oc1cc(-c2nn(C)c3c(-c4cnn(CCCCCCC(=O)Nc5cccc6c5CN(C5CCC(=O)NC5=O)C6=O)c4)cnc(N)c23)ccc1NS(=O)(=O)C(F)F)c1ccc(F)cc1` (stereo partly drawn) [Compound 1062, 7-(4-{4-amino-3-[4-(difluoromethanesulfonamido)-3-[(1S)-1-(4-fluorophenyl)ethoxy]phenyl]-1-methyl-1H-pyrazolo[4,3-c]pyridin-7-yl}-1H-pyrazol-1-yl)-N-[2-(2,6-dioxopiperidin-3-yl)-1-oxo-2,3-dihydro-1H-isoindol-4-yl]heptanamide] as the molecule, how does the IC50 ([1]; Table 27) read?
The IC50 was 1 to 10 µM.

And the Kd (human MLKL (full length))?
The Kd was under 0.01 µM.

Which results are given for `C[C@H](Oc1cc(-c2nn(C)c3c(-c4cnn(C5CCN(C(=O)CC6CN(c7cccc8c7C(=O)N(C7CCC(=O)NC7=O)C8=O)C6)CC5)c4)cnc(N)c23)ccc1NS(=O)(=O)C(F)F)c1ccc(F)cc1` (stereo partly drawn) [Compound 1112, N-[4-(4-amino-7-{1-[1-(2-{1-[2-(2,6-dioxopiperidin-3-yl)-1,3-dioxo-2,3-dihydro-1H-isoindol-4-yl]azetidin-3-yl}acetyl)piperidin-4-yl]-1H-pyrazol-4-yl}-1-methyl-1H-pyrazolo[4,3-c]pyridin-3-yl)-2-[(1S)-1-(4-fluorophenyl)ethoxy]phenyl]-1,1-difluoromethanesulfonamide]?
IC50 ([1]; Table 27): 1 to 10 µM; Kd (human MLKL (full length)): < 0.01 µM

How did the IC50 ([1]; Table 27) turn out when `C[C@H](Oc1cc(-c2nn(C)c3c(-c4cnn(C5CCN(CCc6cccc7c6C(=O)N(C6CCC(=O)NC6=O)C7=O)CC5)c4)cnc(N)c23)ccc1NS(=O)(=O)C(F)F)c1ccc(F)cc1` (stereo partly drawn) [Compound 1136, N-(4-{4-amino-7-[1-(1-{2-[2-(2,6-dioxopiperidin-3-yl)-1,3-dioxo-2,3-dihydro-1H-isoindol-4-yl]ethyl}piperidin-4-yl)-1H-pyrazol-4-yl]-1-methyl-1H-pyrazolo[4,3-c]pyridin-3-yl}-2-[(1S)-1-(4-fluorophenyl)ethoxy]phenyl)-1,1-difluoromethanesulfonamide] was run?
Its IC50 is 1 to 10 µM.

What about the Kd (human MLKL (full length)) of the same molecule?
The Kd was under 0.01 µM.
